# T1: Xyl3A (Mycothermus thermophilus, UniProt A0A0C5AKM5)
# T1 construct: mature Xyl3A, signal peptide (residues 1-19) removed; precursor 777 residues; pPIC9 alpha-factor fusion, secreted from Pichia pastoris GS115
# T1 sequence (A0A0C5AKM5 20-777): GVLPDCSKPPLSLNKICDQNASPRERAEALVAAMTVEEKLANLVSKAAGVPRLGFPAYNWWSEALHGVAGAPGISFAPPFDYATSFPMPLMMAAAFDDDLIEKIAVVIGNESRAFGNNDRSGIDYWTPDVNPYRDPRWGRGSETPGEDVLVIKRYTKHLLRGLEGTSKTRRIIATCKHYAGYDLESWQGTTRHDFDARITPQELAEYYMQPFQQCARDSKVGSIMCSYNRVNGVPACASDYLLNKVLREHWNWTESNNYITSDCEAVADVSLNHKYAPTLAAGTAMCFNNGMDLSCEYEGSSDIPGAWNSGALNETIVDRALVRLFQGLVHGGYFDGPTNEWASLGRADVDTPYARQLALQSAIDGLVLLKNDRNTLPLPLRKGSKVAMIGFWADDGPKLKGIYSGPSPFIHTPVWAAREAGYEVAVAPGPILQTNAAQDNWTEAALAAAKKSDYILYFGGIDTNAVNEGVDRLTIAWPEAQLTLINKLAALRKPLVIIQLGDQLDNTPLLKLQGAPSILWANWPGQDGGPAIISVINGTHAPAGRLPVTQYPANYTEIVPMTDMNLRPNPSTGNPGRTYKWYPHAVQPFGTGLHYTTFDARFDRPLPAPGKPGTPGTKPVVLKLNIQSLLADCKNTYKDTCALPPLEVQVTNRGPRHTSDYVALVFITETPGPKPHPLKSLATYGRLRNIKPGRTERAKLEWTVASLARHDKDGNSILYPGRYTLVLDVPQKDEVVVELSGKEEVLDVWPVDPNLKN
# B1: Xyl3A (Mycothermus thermophilus) (protein)
# chain: GVLPDCSKPPLSLNKICDQNASPRERAEALVAAMTVEEKLANLVSKAAGVPRLGFPAYNWWSEALHGVAGAPGISFAPPFDYATSFPMPLMMAAAFDDDLIEKIAVVIGNESRAFGNNDRSGIDYWTPDVNPYRDPRWGRGSETPGEDVLVIKRYTKHLLRGLEGTSKTRRIIATCKHYAGYDLESWQGTTRHDFDARITPQELAEYYMQPFQQCARDSKVGSIMCSYNRVNGVPACASDYLLNKVLREHWNWTESNNYITSDCEAVADVSLNHKYAPTLAAGTAMCFNNGMDLSCEYEGSSDIPGAWNSGALNETIVDRALVRLFQGLVHGGYFDGPTNEWASLGRADVDTPYARQLALQSAIDGLVLLKNDRNTLPLPLRKGSKVAMIGFWADDGPKLKGIYSGPSPFIHTPVWAAREAGYEVAVAPGPILQTNAAQDNWTEAALAAAKKSDYILYFGGIDTNAVNEGVDRLTIAWPEAQLTLINKLAALRKPLVIIQLGDQLDNTPLLKLQGAPSILWANWPGQDGGPAIISVINGTHAPAGRLPVTQYPANYTEIVPMTDMNLRPNPSTGNPGRTYKWYPHAVQPFGTGLHYTTFDARFDRPLPAPGKPGTPGTKPVVLKLNIQSLLADCKNTYKDTCALPPLEVQVTNRGPRHTSDYVALVFITETPGPKPHPLKSLATYGRLRNIKPGRTERAKLEWTVASLARHDKDGNSILYPGRYTLVLDVPQKDEVVVELSGKEEVLDVWPVDPNLKN
# notes: mature Xyl3A, signal peptide (residues 1-19) removed; precursor 777 residues; pPIC9 alpha-factor fusion, secreted from Pichia pastoris GS115
# Assays:
# [1] = target: T1, Xyl3A; test: pNPX hydrolysis at […] nm, Dixon plot; format: biochemical; details: pNPX 0.75 and 1 mM, xylose 5-50 mM, pH 6.0, 60°C; competitive (general statement for β-xylosidases); Methods define Ki as xylose giving 50% inhibition
# [2] = substrate: O=[N+]([O-])c1ccc(O[C@@H]2OC[C@@H](O)[C@H](O)[C@H]2O)cc1; test: purified protein; format: biochemical, Mycothermus thermophilus; details: pNPX 1-10 mM, 100 mM Na2HPO4-citric acid, pH 6.0, 60°C, 5 min
Molecule,Ki [1] [mM],Km [2] [µM]
OC1OC[C@@H](O)[C@H](O)[C@H]1O (some centres unmarked) [xylose],29,–
B1,–,2510

# From publication PMC4320052, “High Level Expression of a Novel Family 3 Neutral β-Xylosidase from Humicola insolens Y1 with High Tolerance to D-Xylose” (PLoS ONE, 2015)
